From patent US12570671B2 (BRISTOL-MYERS SQUIBB COMPANY, priority 2020, dated 2026)

Experiments:
Ikaros = Ikaros (Homo sapiens, UniProt Q13422+Q96SW2); experiment: Helios Cellular Degradation Assay (Ikaros readout); format: cell-based; parameters: endogenous in cells; host or cells: Jurkat; conditions: Jurkat cells, 72 h incubation, Ikaros-Alexa488 antibody staining, flow cytometry; read-out: Ikaros Jurkat IC50
Procedure, shortened: (§1)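 Jurkat cells (80,000/well, RPMI+10% FBS) were treated with compound for 72 h at 37° C. After fixation and permeabilization they were stained with fluorescent antibodies to Helios, Ikaros and Aiolos. Intracellular protein levels were quantified by flow cytometry.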

Helios = Helios (Homo sapiens, UniProt Q96SW2+Q9UKS7); experiment: Helios Cellular Degradation Assay (Helios readout); format: cell-based; parameters: endogenous in cells; host or cells: Jurkat; conditions: Jurkat cells, 72 h incubation, Helios-PE antibody staining, flow cytometry; read-out: Helios Jurkat IC50
Chain of Helios (Q9UKS7 whole entry): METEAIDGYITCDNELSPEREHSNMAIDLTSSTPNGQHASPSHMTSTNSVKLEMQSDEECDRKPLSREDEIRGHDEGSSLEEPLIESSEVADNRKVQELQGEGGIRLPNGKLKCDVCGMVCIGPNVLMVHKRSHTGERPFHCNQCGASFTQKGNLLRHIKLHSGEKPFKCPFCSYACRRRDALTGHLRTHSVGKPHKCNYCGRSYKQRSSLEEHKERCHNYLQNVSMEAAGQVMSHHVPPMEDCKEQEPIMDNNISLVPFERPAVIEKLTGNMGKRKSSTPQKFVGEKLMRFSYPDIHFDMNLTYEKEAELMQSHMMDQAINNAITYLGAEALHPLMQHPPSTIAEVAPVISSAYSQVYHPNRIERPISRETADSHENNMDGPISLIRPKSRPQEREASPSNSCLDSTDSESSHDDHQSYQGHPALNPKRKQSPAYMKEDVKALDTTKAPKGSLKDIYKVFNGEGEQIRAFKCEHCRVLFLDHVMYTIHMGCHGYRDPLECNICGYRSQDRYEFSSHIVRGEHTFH
Chain of Helios (Q96SW2 whole entry): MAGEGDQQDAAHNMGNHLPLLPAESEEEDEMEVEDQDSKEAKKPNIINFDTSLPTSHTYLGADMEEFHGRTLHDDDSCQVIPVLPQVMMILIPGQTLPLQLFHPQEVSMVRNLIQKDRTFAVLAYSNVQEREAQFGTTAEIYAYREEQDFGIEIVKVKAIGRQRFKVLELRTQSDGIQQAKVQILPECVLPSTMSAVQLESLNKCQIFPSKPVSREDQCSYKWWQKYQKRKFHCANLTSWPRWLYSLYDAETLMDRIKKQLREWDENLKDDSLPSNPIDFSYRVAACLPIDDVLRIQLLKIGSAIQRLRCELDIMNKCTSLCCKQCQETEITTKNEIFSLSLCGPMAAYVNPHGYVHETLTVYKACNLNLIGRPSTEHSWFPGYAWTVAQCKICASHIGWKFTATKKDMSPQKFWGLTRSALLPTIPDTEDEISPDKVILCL
Chain of Helios (Q16531 whole entry partner): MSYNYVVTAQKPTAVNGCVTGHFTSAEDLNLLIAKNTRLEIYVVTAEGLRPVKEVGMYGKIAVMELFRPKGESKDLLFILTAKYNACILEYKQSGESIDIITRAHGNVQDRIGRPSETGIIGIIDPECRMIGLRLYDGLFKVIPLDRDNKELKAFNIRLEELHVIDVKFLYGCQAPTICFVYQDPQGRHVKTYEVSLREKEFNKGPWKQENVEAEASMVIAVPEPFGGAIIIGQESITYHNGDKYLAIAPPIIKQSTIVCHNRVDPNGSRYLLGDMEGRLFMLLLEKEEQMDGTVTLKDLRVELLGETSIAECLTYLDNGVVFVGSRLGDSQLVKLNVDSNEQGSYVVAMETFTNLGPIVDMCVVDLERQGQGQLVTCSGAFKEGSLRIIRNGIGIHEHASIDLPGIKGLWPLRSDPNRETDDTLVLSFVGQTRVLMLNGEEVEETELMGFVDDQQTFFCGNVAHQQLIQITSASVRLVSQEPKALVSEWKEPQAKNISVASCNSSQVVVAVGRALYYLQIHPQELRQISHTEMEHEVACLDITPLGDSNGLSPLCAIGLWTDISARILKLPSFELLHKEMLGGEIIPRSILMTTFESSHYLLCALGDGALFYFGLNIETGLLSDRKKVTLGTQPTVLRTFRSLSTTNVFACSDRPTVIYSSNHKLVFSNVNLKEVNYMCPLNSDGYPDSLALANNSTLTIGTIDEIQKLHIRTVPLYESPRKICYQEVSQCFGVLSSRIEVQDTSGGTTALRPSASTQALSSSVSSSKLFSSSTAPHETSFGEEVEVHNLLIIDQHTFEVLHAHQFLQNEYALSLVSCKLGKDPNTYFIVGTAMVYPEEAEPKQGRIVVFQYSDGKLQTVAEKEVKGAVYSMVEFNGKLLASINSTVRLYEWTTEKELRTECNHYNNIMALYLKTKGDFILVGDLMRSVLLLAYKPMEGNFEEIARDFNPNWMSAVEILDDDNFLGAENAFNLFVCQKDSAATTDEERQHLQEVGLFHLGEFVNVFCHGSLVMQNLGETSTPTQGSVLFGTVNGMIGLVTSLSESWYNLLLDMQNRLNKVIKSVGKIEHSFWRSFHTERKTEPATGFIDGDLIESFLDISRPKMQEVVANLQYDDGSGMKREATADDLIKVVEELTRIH
Procedure, shortened: as §1

Chain of Ikaros (Q13422 whole entry): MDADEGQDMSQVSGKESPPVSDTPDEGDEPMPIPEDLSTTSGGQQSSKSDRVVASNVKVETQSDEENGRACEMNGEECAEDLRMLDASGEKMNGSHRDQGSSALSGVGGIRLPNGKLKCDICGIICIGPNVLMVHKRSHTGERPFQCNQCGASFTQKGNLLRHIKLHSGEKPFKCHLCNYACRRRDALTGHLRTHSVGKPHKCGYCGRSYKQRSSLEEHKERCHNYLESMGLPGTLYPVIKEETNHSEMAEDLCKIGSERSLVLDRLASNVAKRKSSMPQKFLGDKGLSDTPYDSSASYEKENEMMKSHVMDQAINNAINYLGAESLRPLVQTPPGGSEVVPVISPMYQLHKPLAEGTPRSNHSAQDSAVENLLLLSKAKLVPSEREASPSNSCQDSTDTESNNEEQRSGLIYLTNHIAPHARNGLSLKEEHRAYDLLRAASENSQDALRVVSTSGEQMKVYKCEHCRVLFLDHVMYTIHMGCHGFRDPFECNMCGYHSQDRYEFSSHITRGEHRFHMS
Chain of Ikaros (Q96SW2 whole entry): as the sequence (Q96SW2 whole entry) above
Chain of Ikaros (Q16531 whole entry partner): as the sequence (Q16531 whole entry partner) above

| Compound | DC50 (Ikaros) [nM] | DC50 (Helios) [nM] |
| --- | --- | --- |
| Nc1nc2ccccc2nc1-c1ccc2c(c1)CN(C1CCC(=O)NC1=O)C2=O (stereo not shown) [Example 5, 3-[5-(3-aminoquinoxalin-2-yl)-1-oxo-2,3-dihydro-1H-isoindol-2-yl]piperidine-2,6-dione] | > 20000 | > 20000 |
| N#Cc1ccc(-c2ccc3c(c2)CN(C2CCC(=O)NC2=O)C3=O)nc1N (stereo not shown) [Example 166, 2-amino-6-(2-(2,6-dioxopiperidin-3-yl)-1-oxoisoindolin-5-yl)nicotinonitrile] | ≥ 20000 | 20 |
| Nc1cc(-c2ccc3c(c2)CN(C2CCC(=O)NC2=O)C3=O)nc2ccccc12 (stereo not shown) [Example 8, 3-[5-(4-aminoquinolin-2-yl)-1-oxo-2,3-dihydro-1H-isoindol-2-yl]piperidine-2,6-dione] | > 20000 | 25 |
| CCn1ncc2c(-c3ccc4c(c3)CN(C3CCC(=O)NC3=O)C4=O)nc(N)nc21 (stereo not shown) [Example 45, 3-(5-{6-amino-1-ethyl-1H-pyrazolo[3,4-d]pyrimidin-4-yl}-1-oxo-2,3-dihydro-1H-isoindol-2-yl)piperidine-2,6-dione] | > 20000 | 430 |
| O=C1CCC(N2Cc3cc(-c4ccc5c(n4)NC(=O)C5)ccc3C2=O)C(=O)N1 (stereo not shown) [Example 114, 3-(1-oxo-5-(2-oxo-2,3-dihydro-1H-pyrrolo[2,3-b]pyridin-6-yl)isoindolin-2-yl)piperidine-2,6-dione] | ≥ 10000 | 1120 |
| Cc1nc(-c2ccc3c(c2)CN(C2CCC(=O)NC2=O)C3=O)cc2ccccc12 (stereo not shown) [Example 88, 3-(5-(1-methylisoquinolin-3-yl)-1-oxoisoindolin-2-yl)piperidine-2,6-dione] | ≥ 20000 | 20 |
| O=C1CCC(N2Cc3cc(-c4nccc5ccc(F)cc45)ccc3C2=O)C(=O)N1 (stereo not shown) [Example 19, 3-[5-(7-fluoroisoquinolin-1-yl)-1-oxo-2,3-dihydro-1H-isoindol-2-yl]piperidine-2,6-dione] | 140 | 30 |
| O=C1CCC(N2Cc3cc(-c4cc(-c5ccccc5)c5ccccc5n4)ccc3C2=O)C(=O)N1 (stereo not shown) [Example 13, 3-[1-oxo-5-(4-phenylquinolin-2-yl)-2,3-dihydro-1H-isoindol-2-yl]piperidine-2,6-dione] | > 20000 | 750 |
| O=C1CCC(N2Cc3cc(-c4cc(-c5ccccc5)ccn4)ccc3C2=O)C(=O)N1 (stereo not shown) [Example 74, 3-(1-oxo-5-(4-phenylpyridin-2-yl)isoindolin-2-yl)piperidine-2,6-dione] | 34 | 32 |
| CC(=O)O[C@@H]1CCOc2nc(-c3ccc4c(c3)CN([C@H]3CCC(=O)NC3=O)C4=O)ccc21 [Example 128, (4R)-7-{2-[(3S)-2,6-dioxopiperidin-3-yl]-1-oxo-2,3-dihydro-1H-isoindol-5-yl}-2H,3H,4H-pyrano[2,3-b]pyridin-4-yl acetate] | ≥ 20000 | 2830 |
| Cc1cc2ccccc2nc1-c1ccc2c(c1)CN(C1CCC(=O)NC1=O)C2=O (stereo not shown) [Example 32, 3-[5-(3-methylquinolin-2-yl)-1-oxo-2,3-dihydro-1H-isoindol-2-yl]piperidine-2,6-dione] | > 20000 | 480 |
| Nc1nc(-c2ccc3c(c2)CN([C@H]2CCC(=O)NC2=O)C3=O)cc2ccccc12 [Example 82, (3S)-3-[5-(1-aminoisoquinolin-3-yl)-1-oxo-2,3-dihydro-1H-isoindol-2-yl]piperidine-2,6-dione] | ≥ 20000 | 4 |
| COc1cc(-c2ccc3c(c2)CN(C2CCC(=O)NC2=O)C3=O)nc2ccccc12 (stereo not shown) [Example 12, 3-[5-(4-methoxyquinolin-2-yl)-1-oxo-2,3-dihydro-1H-isoindol-2-yl]piperidine-2,6-dione] | > 20000 | 38 |
| N#Cc1cccc(-c2ccc3c(c2)CN(C2CCC(=O)NC2=O)C3=O)n1 (stereo not shown) [Example 162, 6-(2-(2,6-dioxopiperidin-3-yl)-1-oxoisoindolin-5-yl)picolinonitrile] | ≥ 20000 | 2460 |
| O=C1CCC(N2Cc3cc(-c4cc5ccccc5c(=O)[nH]4)ccc3C2=O)C(=O)N1 (stereo not shown) [Example 157, 3-[1-Oxo-5-(1-oxo-1,2-dihydroisoquinolin-3-yl)-2,3-dihydro-1H-isoindol-2-yl]piperidine-2,6-dione] | ≥ 20000 | 110 |
| O=C1CC[C@H](N2Cc3cc(-c4ccc5cccnc5n4)ccc3C2=O)C(=O)N1 [Example 122, (3S)-3-[5-(1,8-naphthyridin-2-yl)-1-oxo-2,3-dihydro-1H-isoindol-2-yl]piperidine-2,6-dione] | ≥ 20000 | 50 |
| Nc1cc(Cl)cc(-c2ccc3c(c2)CN(C2CCC(=O)NC2=O)C3=O)n1 (stereo not shown) [Example 165, 3-(5-(6-amino-4-chloropyridin-2-yl)-1-oxoisoindolin-2-yl)piperidine-2,6-dione] | ≥ 20000 | 30 |
| Cc1cc(-c2ccc3c(c2)CN(C2CCC(=O)NC2=O)C3=O)nc(C)c1N (stereo not shown) [Example 119, 3-(5-(5-amino-4,6-dimethylpyridin-2-yl)-1-oxoisoindolin-2-yl)piperidine-2,6-dione] | ≥ 10000 | 240 |

| Compound | DC50 (Ikaros) [nM] | DC50 (Helios) [nM] |
| --- | --- | --- |
| Nc1nc(-c2ccc3c(c2)CN(C2CCC(=O)NC2=O)C3=O)c2nc[nH]c2n1 (stereo not shown) [Example 43, 3-[5-(2-amino-9H-purin-6-yl)-1-oxo-2,3-dihydro-1H-isoindol-2-yl]piperidine-2,6-dione] | > 20000 | > 20000 |
| CNc1nc(-c2ccc3c(c2)CN(C2CCC(=O)NC2=O)C3=O)cc2ccccc12 (stereo not shown) [Example 50, 3-{5-[1-(Methylamino)isoquinolin-3-yl]-1-oxo-2,3-dihydro-1H-isoindol-2-yl}piperidine-2,6-dione] | > 20000 | 11 |
| Cc1ccc2c(-c3ccc4c(c3)CN(C3CCC(=O)NC3=O)C4=O)nccc2c1 (stereo not shown) [Example 23, 3-[5-(6-methylisoquinolin-1-yl)-1-oxo-2,3-dihydro-1H-isoindol-2-yl]piperidine-2,6-dione] | 130 | 6 |
| CCNc1cc(C)cc(-c2ccc3c(c2)CN(C2CCC(=O)NC2=O)C3=O)n1 (stereo not shown) [Example 188, 3-(5-(6-(Ethylamino)-4-methylpyridin-2-yl)-1-oxoisoindolin-2-yl)piperidine-2,6-dione] | ≥ 10000 | 40 |
| O=C1CCC(N2Cc3cc(-c4ccccn4)ccc3C2=O)C(=O)N1 (stereo not shown) [Example 109, 3-(1-oxo-5-(pyridin-2-yl)isoindolin-2-yl) piperidine-2,6-dione] | ≥ 10000 | 610 |
| Cc1cc(C)nc(-c2ccc3c(c2)CN(C2CCC(=O)NC2=O)C3=O)c1 (stereo not shown) [Example 144, 3-(5-(4,6-dimethylpyridin-2-yl)-1-oxoisoindolin-2-yl)piperidine-2,6-dione] | ≥ 20000 | 83 |
| CNc1cc(C)cc(-c2ccc3c(c2)CN(C2CCC(=O)NC2=O)C3=O)n1 (stereo not shown) [Example 187, 3-(5-(4-Methyl-6-(methylamino)pyridin-2-yl)-1-oxoisoindolin-2-yl)piperidine-2,6-dione] | ≥ 10000 | 10 |
| O=C1CCC(N2Cc3cc(-c4ncc5ccccc5n4)ccc3C2=O)C(=O)N1 (stereo not shown) [Example 9, 3-[1-oxo-5-(quinazolin-2-yl)-2,3-dihydro-1H-isoindol-2-yl]piperidine-2,6-dione] | > 20000 | 27 |
| CCNc1nc2ccccc2nc1-c1ccc2c(c1)CN(C1CCC(=O)NC1=O)C2=O (stereo not shown) [Example 95, 3-(5-(3-(ethylamino)quinoxalin-2-yl)-1-oxoisoindolin-2-yl)piperidine-2,6-dione] | 310 | 110 |
| O=C1CCC(N2Cc3cc(-c4ccc5c(n4)NCCCC5)ccc3C2=O)C(=O)N1 (stereo not shown) [Example 136, 3-(1-oxo-5-{5H,6H,7H,8H,9H-pyrido[2,3-b]azepin-2-yl}-2,3-dihydro-1H-isoindol-2-yl) piperidine-2,6-dione] | ≥ 10000 | 290 |
| N#Cc1cnc(-c2ccc3c(c2)CN(C2CCC(=O)NC2=O)C3=O)nc1N (stereo not shown) [Example 80, 4-Amino-2-[2-(2,6-dioxopiperidin-3-yl)-1-oxo-2,3-dihydro-1H-isoindol-5-yl]pyrimidine-5-carbonitrile] | > 20000 | 320 |
| Cc1cc(-c2ccc3c(c2)CN(C2CCC(=O)NC2=O)C3=O)nc(N)c1C#N (stereo not shown) [Example 148, 2-amino-6-(2-(2,6-dioxopiperidin-3-yl)-1-oxoisoindolin-5-yl)-4-methylnicotinonitrile] | ≥ 10000 | 10 |
| O=C1CCC(N2Cc3cc(-c4cc5c(cn4)CCCC5)ccc3C2=O)C(=O)N1 (stereo not shown) [Example 115, 3-(1-oxo-5-(5,6,7,8-tetrahydroisoquinolin-3-yl)isoindolin-2-yl)piperidine-2,6-dione] | 160 | 100 |
| O=C1CCC(N2Cc3cc(-c4ncc(Br)c5cc[nH]c45)ccc3C2=O)C(=O)N1 (stereo not shown) [Example 56, 3-(5-{4-bromo-1H-pyrrolo[2,3-c]pyridin-7-yl}-1-oxo-2,3-dihydro-1H-isoindol-2-yl) piperidine-2,6-dione] | 49 | 27 |
| Nc1c(-c2ccc3c(c2)CN(C2CCC(=O)NC2=O)C3=O)ncc2ccccc12 (stereo not shown) [Example 2, 3-(5-(4-Aminoisoquinolin-3-yl)-1-oxoisoindolin-2-yl)piperidine-2,6-dione] | 13700 | 370 |
| O=C1CCC(N2Cc3cc(-c4ccc5c(n4)NCCN5)ccc3C2=O)C(=O)N1 (stereo not shown) [Example 118, 3-(1-oxo-5-(1,2,3,4-tetrahydropyrido[2,3-b]pyrazin-6-yl)isoindolin-2-yl)piperidine-2,6-dione] | ≥ 10000 | 180 |
| CCOC(=O)c1nc2ccccc2nc1-c1ccc2c(c1)CN(C1CCC(=O)NC1=O)C2=O (stereo not shown) [Example 30, ethyl 3-[2-(2,6-dioxopiperidin-3-yl)-1-oxo-2,3-dihydro-1H-isoindol-5-yl]quinoxaline-2-carboxylate] | > 20000 | > 20000 |
